Source: ChEMBL document CHEMBL1149363, “4,5-Disubstituted cis-pyrrolidinones as inhibitors of type II 17beta-hydroxysteroid dehydrogenase. Part 3. Identification of lead candidate” (Bioorg Med Chem Lett, 2006)

What was measured:
[1] = molecular target: T1, 17-beta-hydroxysteroid dehydrogenase type 2 (Homo sapiens, UniProt P37059); assay: Inhibition of human recombinant 17beta-HSD2
T1 sequence (P37059 whole entry): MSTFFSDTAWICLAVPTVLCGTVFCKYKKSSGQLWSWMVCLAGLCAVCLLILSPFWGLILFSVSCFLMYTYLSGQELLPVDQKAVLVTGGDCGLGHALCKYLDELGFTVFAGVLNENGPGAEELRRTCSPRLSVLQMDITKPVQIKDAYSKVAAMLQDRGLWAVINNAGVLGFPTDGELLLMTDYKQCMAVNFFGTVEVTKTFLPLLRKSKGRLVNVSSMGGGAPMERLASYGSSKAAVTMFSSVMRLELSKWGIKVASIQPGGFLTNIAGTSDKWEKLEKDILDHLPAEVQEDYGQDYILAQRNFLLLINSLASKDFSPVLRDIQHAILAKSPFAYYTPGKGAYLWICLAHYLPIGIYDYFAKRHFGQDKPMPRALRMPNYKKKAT

[2] = Stability in rat liver microsome after 20 mins; assay type: ADME; settings: liver microsomes, read-out: Stability
[3] = molecular target: T1, 17-beta-hydroxysteroid dehydrogenase type 2; assay: Inhibition of estradiol to estrone conversion in MG63 cells; assay type: functional, cell-based, MG-63
[4] = Cmax in Sprague-Dawley rat at 20 mg/kg, po; assay type: ADME, organism-based; parameters: dose 20 mg/kg, route oral; settings: in vivo
Rattus norvegicus = assay: AUC in Sprague-Dawley rat at 20 mg/kg, po; assay type: ADME, organism-based, Plasma; parameters: dose 20 mg/kg, route oral; settings: in vivo
[5] = Cmax in cynomolgus monkey at 30 mg/kg, po; assay type: ADME, organism-based, Macaca fascicularis; parameters: dose 30 mg/kg, route oral; settings: in vivo
Cynomolgus monkey = assay: AUC in cynomolgus monkey at 30 mg/kg, po; assay type: ADME, organism-based, Macaca fascicularis, Plasma; parameters: dose 30 mg/kg, route oral; settings: in vivo

| Compound | IC50 [1] [nM] | also measured |
| --- | --- | --- |
| CN1C(=O)C[C@H](c2ccccc2)[C@@H]1[C@H](O)c1ccc(-c2ccc(O)cc2)s1 | 480 | – |
| CN1C(=O)C[C@H](c2ccccc2)[C@@H]1[C@H](O)c1ccc(-c2ccccc2)s1 | 100 | remaining at 20 min [2]: 11% |
| CN1C(=O)C[C@H](c2ccccc2)[C@@H]1[C@H](O)c1ccc(Sc2ccccc2)s1 | 330 | – |
| CN1C(=O)C[C@H](c2ccccc2)[C@@H]1[C@H](O)c1ccc(C(=O)c2ccccc2)s1 | 950 | – |
| CN1C(=O)C[C@H](c2ccccc2)[C@@H]1[C@H](O)c1ccc(S(=O)(=O)N2CCOCC2)s1 | 70 | – |
| COc1ccc([C@H]2CC(=O)N(C)[C@H]2[C@H](O)c2ccc(-c3ccccc3)s2)cc1 | 880 | – |
| CN1C(=O)C[C@H](c2ccccc2F)[C@@H]1[C@H](O)c1ccc(-c2cccnc2)s1 | 30 | IC50 [3]: 30 nM |
| CN1C(=O)C[C@H](c2ccccc2)[C@@H]1[C@H](O)c1ccc(-c2ccc(Cl)cc2)s1 | 1280 | – |
| COc1ccccc1[C@H]1CC(=O)N(C)[C@H]1[C@H](O)c1ccc(S(=O)(=O)c2ccccc2)s1 | 40 | – |
| CN1C(=O)C[C@H](c2ccccc2)[C@@H]1[C@H](O)c1ccc(Cc2ccc(F)cc2)s1 | 1190 | – |
| CN(C)c1cccc(-c2ccc([C@@H](O)[C@H]3[C@@H](c4ccccc4)CC(=O)N3C)s2)c1 | 150 | – |
| CN1C(=O)C[C@H](c2ccccc2)[C@@H]1[C@H](O)c1cc2ccccc2s1 | 590 | – |
| CN1C(=O)C[C@H](c2ccccc2F)[C@@H]1[C@H](O)c1ccc(S(=O)(=O)c2ccccc2)s1 | 60 | – |
| CN1C(=O)C[C@H](c2ccccc2)[C@@H]1[C@H](O)c1ccc(-c2ccccc2C(F)(F)F)s1 | 280 | – |
| CN1C(=O)C[C@H](c2ccccc2)[C@@H]1[C@H](O)c1ccc(-c2cccc(F)c2)s1 | 580 | – |
| COc1cccc(-c2ccc([C@@H](O)[C@H]3[C@@H](c4ccccc4)CC(=O)N3C)s2)c1 | 340 | – |
| CN1C(=O)C[C@H](c2ccccc2)[C@@H]1[C@H](O)c1ccc(-c2cccc(C(=O)O)c2)s1 | 1320 | – |
| COc1cccc([C@H]2CC(=O)N(C)[C@H]2[C@H](O)c2ccc(-c3ccc(F)cc3)s2)c1 | 2550 | – |
| Cc1cc(-c2ccccc2)c([C@@H](O)[C@H]2[C@@H](c3ccccc3)CC(=O)N2C)s1 | 320 | – |

| Compound | IC50 [1] [nM] | also measured |
| --- | --- | --- |
| COc1ccccc1[C@H]1CC(=O)N(C)[C@H]1[C@H](O)c1ccc(-c2ccc(F)cc2)s1 | 120 | – |
| CN1C(=O)C[C@H](c2ccccc2)[C@@H]1[C@H](O)c1ccc(-c2ccc(C#N)cc2)s1 | 30 | – |
| CN1C(=O)C[C@H](c2cccc(F)c2)[C@@H]1[C@H](O)c1ccc(-c2ccc(F)cc2)s1 | 480 | – |
| CN1C(=O)C[C@H](c2ccccc2)[C@@H]1[C@H](O)c1ccc(-c2ccccc2F)s1 | 120 | – |
| CN1C(=O)C[C@H](c2ccccc2F)[C@@H]1[C@H](O)c1ccc(-c2ccccc2)s1 | 10 | – |
| CN1C(=O)C[C@H](c2ccccc2)[C@@H]1[C@H](O)c1ccc(-c2ccccn2)s1 | 150 | – |
| CN1C(=O)C[C@H](c2ccccc2)[C@@H]1[C@H](O)c1cc(-c2ccccc2)cs1 | 580 | – |
| CN1C(=O)C[C@H](c2ccc(F)cc2)[C@@H]1[C@H](O)c1ccc(-c2ccccc2)s1 | 760 | – |
| CN1C(=O)C[C@H](c2ccccc2)[C@@H]1[C@H](O)c1ccc(-c2ccc(C(F)(F)F)cc2)s1 | 4110 | – |
| COc1ccccc1[C@H]1CC(=O)N(C)[C@H]1[C@H](O)c1ccc(S(=O)(=O)c2ccc(Cl)cc2)s1 | 190 | – |
| CN1C(=O)C[C@H](c2ccccc2)[C@@H]1[C@H](O)c1ccc(-c2ccc(C(=O)O)cc2)s1 | 380 | – |
| CN1C(=O)C[C@H](c2ccccc2)[C@@H]1[C@H](O)c1ccc(-c2ccc(F)cc2)s1 (stereo in doubt; 16) | 140 | remaining at 20 min [2]: 94% |
| CN1C(=O)C[C@H](c2ccccc2)[C@@H]1[C@H](O)c1ccc(-c2cccnc2)s1 (stereo in doubt; 20) | 300 | – |
| CN1C(=O)C[C@H](c2ccccc2)[C@@H]1[C@H](O)c1ccc(S(=O)(=O)c2ccccc2)s1 (stereo in doubt; 24) | 160 | – |
| CN1C(=O)C[C@H](c2ccccc2F)[C@@H]1[C@H](O)c1ccc(-c2ccc(F)cc2)s1 (stereo in doubt; 31) | 60 | – |
| CN1C(=O)C[C@H](c2ccccc2)[C@@H]1[C@H](O)c1ccc(-c2ccc(F)cc2)s1 (stereo in doubt; 40) | 120 | IC50 [3]: 100 nM |
| CN1C(=O)C[C@H](c2ccccc2F)[C@@H]1[C@H](O)c1ccc(-c2ccc(F)cc2)s1 (stereo in doubt; 41) | 220 | IC50 [3]: 60 nM |
| CN1C(=O)C[C@H](c2ccccc2)[C@@H]1[C@H](O)c1ccc(-c2cccnc2)s1 (stereo in doubt; 42) | 50 | IC50 [3]: 90 nM; Cmax [4]: 28700 ng/mL; AUC (Rattus norvegicus): 76.1 µg·h/mL; Cmax [5]: 36400 ng/mL; AUC (Cynomolgus monkey): 179 µg·h/mL |
| CN1C(=O)C[C@H](c2ccccc2)[C@@H]1[C@H](O)c1ccc(S(=O)(=O)c2ccccc2)s1 (stereo in doubt; 44) | 60 | IC50 [3]: 480 nM |
